Results as given in ChEMBL document CHEMBL1201862, “PubChem BioAssay data set” (2004).
Values joined by “and” are separate entries in the source; they are usually repeats but may differ in a detail not shown here. Equal entries are not always repeated.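 Results reflect a 48-hour exposure of cells in 96-well plates to compound at five concentrations. Here, GI50 denotes the concentration required for 50% inhibition of growth.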 Active and inactive are the calls of the source. No stated cut-off is given here; in the data, active = GI50 up to about 1.1 µM and inactive = higher.

How the values were obtained:
Test in all cases: NCI anticancer screen, dose series, 48 h
HCT-116 = system: HCT-116
NCI-H23 = system: NCI-H23
RXF 393 = system: RXF 393
OVCAR-4 = system: OVCAR-4
M14 = system: M14
TK-10 = system: TK-10
SK-MEL-2 = system: SK-MEL-2
T47D = system: T47D
SN12C = system: SN12C
COLO 205 = system: COLO 205
HCC 2998 = system: HCC 2998
PC-3 = system: PC-3
KM12 = system: KM12
OVCAR-3 = system: OVCAR-3
SW-620 = system: SW-620
K562 = system: K562
HL-60 = system: HL-60
OVCAR-5 = system: OVCAR-5
RPMI-8226 = system: RPMI-8226
HOP-62 = system: HOP-62

Structure (SMILES) | GI50 (HCT-116) | GI50 (NCI-H23) | GI50 (RXF 393) | GI50 (OVCAR-4) | GI50 (M14) | GI50 (TK-10) | GI50 (SK-MEL-2) | GI50 (T47D) | GI50 (SN12C) | GI50 (COLO 205) | GI50 (HCC 2998) | GI50 (PC-3) | GI50 (KM12) | GI50 (OVCAR-3) | GI50 (SW-620) | GI50 (K562) | GI50 (HL-60) | GI50 (OVCAR-5) | GI50 (RPMI-8226) | GI50 (HOP-62)
N#CC(c1ccccc1)N(CCc1ccccc1)C(=O)c1ccc(C(=O)N(CCc2ccccc2)C(C#N)c2ccccc2)cc1 (stereo not given) | 14.3 µM (inactive) | 25.5 µM (inactive) | 21.3 µM (inactive) | 18.9 µM (inactive) | 24.4 µM (inactive) | 13.9 µM (inactive) | 19.6 µM (inactive) | 16.9 µM (inactive) | 19.5 µM (inactive) | 21.9 µM (inactive) | 15.3 µM (inactive) | 21.7 µM (inactive) | 32.9 µM (inactive) | 17.1 µM (inactive) | 22.9 µM (inactive) | 20.9 µM (inactive) | 22.9 µM (inactive) | 19.8 µM (inactive) |  | 
COc1cccc2c1CCc1sc(CN3CCN(C)CC3)nc1-2 | 57.7 µM (inactive) | 84.7 µM (inactive) | 6.84 µM (inactive) | > 100 µM (inactive) | 51.1 µM (inactive) | > 100 µM (inactive) | > 100 µM (inactive) | 33.8 µM (inactive) | > 100 µM (inactive) | 61.2 µM (inactive) | 49.4 µM (inactive) | 44.8 µM (inactive) | 80.2 µM (inactive) | > 100 µM (inactive) | > 100 µM (inactive) | 31.4 µM (inactive) |  | > 100 µM (inactive) | 30.1 µM (inactive) | > 100 µM (inactive)
COC1OC(COC(=O)NCCCCC(=O)C(F)(F)C(F)(F)C(F)(F)C(F)(F)C(F)(F)C(F)(F)C(F)(F)F)C(O)C(O)C1O (stereo not given) | 15 µM (inactive) and 19 µM (inactive) | 14.8 µM (inactive) and 17.8 µM (inactive) | 13.6 µM (inactive) and 15.1 µM (inactive) | 15 µM (inactive) and 16.7 µM (inactive) | 14.8 µM (inactive) and 16 µM (inactive) | 16.9 µM (inactive) and 16.4 µM (inactive) | 22.2 µM (inactive) and 21.8 µM (inactive) | 19.6 µM (inactive) and 15.2 µM (inactive) | 19.6 µM (inactive) and 21.4 µM (inactive) | 25.9 µM (inactive) and 21.8 µM (inactive) | 19.6 µM (inactive) and 19.5 µM (inactive) | 12.9 µM (inactive) and 13.6 µM (inactive) | 17.5 µM (inactive) and 18.7 µM (inactive) | 15.5 µM (inactive) and 14.9 µM (inactive) | 17.1 µM (inactive) and 15.8 µM (inactive) | 10.6 µM (inactive) and 16 µM (inactive) |  | 17.8 µM (inactive) and 17.5 µM (inactive) | 28.9 µM (inactive) and 29.9 µM (inactive) | 15 µM (inactive) and 16.2 µM (inactive)
C[Si](C)(C)OC1c2[nH]c3ccccc3c2CN2C(=O)CCC12 (stereo not given) | > 100 µM (inactive) |  |  | > 100 µM (inactive) | > 100 µM (inactive) | > 100 µM (inactive) | > 100 µM (inactive) | > 100 µM (inactive) | > 100 µM (inactive) | > 100 µM (inactive) | > 100 µM (inactive) | > 100 µM (inactive) | > 100 µM (inactive) | > 100 µM (inactive) | > 100 µM (inactive) | > 100 µM (inactive) | > 100 µM (inactive) | > 100 µM (inactive) | > 100 µM (inactive) | > 100 µM (inactive)
CCOP(=O)(OCC)C(C(=O)OC)C(=O)C(=O)Nc1cccc(O)c1 (stereo not given) | > 100 µM (inactive) | > 100 µM (inactive) | > 100 µM (inactive) | > 100 µM (inactive) | > 100 µM (inactive) | > 100 µM (inactive) | > 100 µM (inactive) | > 100 µM (inactive) | > 100 µM (inactive) | > 100 µM (inactive) | > 100 µM (inactive) | > 100 µM (inactive) | > 100 µM (inactive) | > 100 µM (inactive) | > 100 µM (inactive) |  |  | > 100 µM (inactive) |  | > 100 µM (inactive)
CCC(=O)Oc1ccc2c(c1)c(=O)c1c(NCCCN(C)C)ccc3nnn2c31 | 0.334 µM (active) | 3.35 µM (inactive) | 1.83 µM (inactive) | 0.548 µM (active) | 5.3 µM (inactive) | 0.818 µM (active) | 13 µM (inactive) | 15.7 µM (inactive) | 0.525 µM (active) | 1.99 µM (inactive) | 1.25 µM (inactive) | 2.48 µM (inactive) | 0.796 µM (active) | 7 µM (inactive) | 0.322 µM (active) | 0.726 µM (active) |  | 8.28 µM (inactive) | 0.767 µM (active) | 1.53 µM (inactive)
CN(C)C(=N)/N=C(\N)Nc1cccc(Cl)c1 | 85.7 µM (inactive) | > 100 µM (inactive) |  | > 100 µM (inactive) | 58.2 µM (inactive) | > 100 µM (inactive) | > 100 µM (inactive) | 24.8 µM (inactive) | 98.6 µM (inactive) | 20 µM (inactive) | > 100 µM (inactive) | 41.8 µM (inactive) | > 100 µM (inactive) | > 100 µM (inactive) | > 100 µM (inactive) | > 100 µM (inactive) |  | > 100 µM (inactive) | > 100 µM (inactive) | > 100 µM (inactive)
CCn1c2ccccc2c2cc(NC(=O)c3c(C)nc(O)nc3NCCNCCO)ccc21 | > 100 µM (inactive) | > 100 µM (inactive) | > 100 µM (inactive) | > 100 µM (inactive) | > 100 µM (inactive) | > 100 µM (inactive) |  | > 100 µM (inactive) | > 100 µM (inactive) | > 100 µM (inactive) | > 100 µM (inactive) | > 100 µM (inactive) | > 100 µM (inactive) | > 100 µM (inactive) | > 100 µM (inactive) | > 100 µM (inactive) | 1.58 µM (inactive) | > 100 µM (inactive) |  | > 100 µM (inactive)
COC(=O)/C=C\n1c(C)cc(=O)[nH]c1=O | > 100 µM (inactive) | > 100 µM (inactive) | > 100 µM (inactive) | > 100 µM (inactive) | > 100 µM (inactive) | > 100 µM (inactive) | > 100 µM (inactive) | > 100 µM (inactive) | > 100 µM (inactive) | > 100 µM (inactive) | > 100 µM (inactive) | > 100 µM (inactive) | > 100 µM (inactive) | > 100 µM (inactive) | > 100 µM (inactive) | > 100 µM (inactive) |  | > 100 µM (inactive) | > 100 µM (inactive) | > 100 µM (inactive)
O=c1c2sc3nc(NCCN4CCCCC4)ncc3c2ncn1-c1ccccc1 | 33.1 µM (inactive) | > 100 µM (inactive) | 20.6 µM (inactive) | > 100 µM (inactive) | 19.6 µM (inactive) | 48.3 µM (inactive) | 34.2 µM (inactive) | 35.8 µM (inactive) | > 100 µM (inactive) | 41.3 µM (inactive) | > 100 µM (inactive) | 59.3 µM (inactive) | > 100 µM (inactive) | > 100 µM (inactive) | 46.7 µM (inactive) | 47.1 µM (inactive) |  | > 100 µM (inactive) | 80.4 µM (inactive) | 42.1 µM (inactive)
COc1ccc(-c2nnc(CCCCCCCCc3nnc(-c4ccc(OC)cc4)n3N)n2N)cc1 | > 66.1 µM (inactive) | > 100 µM (inactive) |  | > 100 µM (inactive) | > 100 µM (inactive) | > 60 µM (inactive) | > 81.5 µM (inactive) | > 100 µM (inactive) | > 100 µM (inactive) | > 100 µM (inactive) | > 100 µM (inactive) | > 100 µM (inactive) | > 100 µM (inactive) | > 100 µM (inactive) | > 100 µM (inactive) | > 100 µM (inactive) | > 100 µM (inactive) | > 100 µM (inactive) | > 100 µM (inactive) | 28.2 µM (inactive)
O=C(N/N=C/c1ccccc1O)c1ccccc1Nc1ccccc1C(=O)N/N=C/c1ccccc1O | 0.198 µM (active) | 1.84 µM (inactive) |  | 0.375 µM (active) | 0.953 µM (active) | 5.87 µM (inactive) |  | 0.859 µM (active) |  | 0.303 µM (active) | > 100 µM (inactive) | 13.4 µM (inactive) | 1.38 µM (inactive) | 0.0546 µM (active) |  | 1 µM (active) | 1.69 µM (inactive) | > 100 µM (inactive) |  | 0.432 µM (active)
Nc1nc(O)c2nc3c(nc2n1)C(=O)N(c1ccc(C(=O)O)cc1)C3 | > 100 µM (inactive) | > 100 µM (inactive) | > 100 µM (inactive) | > 100 µM (inactive) | > 100 µM (inactive) | > 100 µM (inactive) | > 100 µM (inactive) | > 100 µM (inactive) | > 100 µM (inactive) | > 100 µM (inactive) | > 100 µM (inactive) | > 100 µM (inactive) | > 100 µM (inactive) |  | > 100 µM (inactive) | > 100 µM (inactive) |  | > 100 µM (inactive) | > 100 µM (inactive) | 29.4 µM (inactive)
COc1cc(C2SCC(=O)N2c2ccc(-c3ccc(-n4c(-c5ccccc5)nc5ccccc5c4=O)cc3)cc2)cc(OC)c1OC (stereo not given) | 13.1 µM (inactive) | 73.1 µM (inactive) |  | 10.4 µM (inactive) | 20.5 µM (inactive) | 63.1 µM (inactive) | 22.2 µM (inactive) | 24.8 µM (inactive) | 81.5 µM (inactive) | 54.1 µM (inactive) | 55.2 µM (inactive) | 11.4 µM (inactive) | 12.6 µM (inactive) | 18.5 µM (inactive) | 17.3 µM (inactive) | 13.6 µM (inactive) | 22.3 µM (inactive) | > 100 µM (inactive) | > 100 µM (inactive) | 23.3 µM (inactive)
